Test results from patent US20250340902A1, “GENE THERAPY FOR BVES-RELATED DISORDERS” (OHIO STATE INNOVATION FOUNDATION, priority 2022, published 2025).

Columns and labels:
BVES-KO mice = test: Bortezomib treatment of BVES-KO mice; type: in vivo, mouse; conditions: vs vehicle
Experimental: Histology analysis and immunofluorescence staining. The skeletal muscles were embedded in optimal cutting temperature (OCT) compound, flash frozen using isopentane chilled in liquid nitrogen and kept at −80° C. until used. Cryosections were prepared using a cryostat Leica CM3054. For hematoxylin and eosin (H&E), transversely oriented sections (10 μm) were cut at mid-point, stained and imaged using a Nikon Ti-E inverted fluorescence microscope equipped with a Lumenera Infinity Color CCD camera and a Nikon Super Fluor 20×0.75 NA objective lens (Nikon Inc., Melville, NY) as previously described.
For immunofluorescence staining, frozen tissue sections (10 μm) were fixed with 4% paraformaldehyde for 10 minutes at room temperature. After washing with PBS, the slides were blocked with 5% BSA/PBS for one hour. The slides were incubated with the indicated primary antibodies (Table 3) at 4° C. overnight. After extensive washing with PBS, the slides were incubated with the secondary antibodies (1:400) (Table 3) for one hour at room temperature. The slides were sealed with […] Antifade Mounting Medium with DAPI (Vector Laboratory, Burlingame, CA). The images were taken under a LSM780 microscope (Zeiss, Germany) and assembled to figures using Adobe Photoshop 21.0.2 (Adobe, San Jose, CA). Fiber size and CNF quantification were carried out using Myosight with manual calibration on the entire cross-sections of GA muscles.
Bortezomib Treatment. Bortezomib was purchased from Selleck Chemicals (#S0130, Houston, TX). A stock solution (5 mg/ml) dissolved in the vehicle 2% DMSO, 30% PEG300 and ddH2O were aliquoted and stored at […]. An equal volume of Bortezomib (0.8 mg/kg diluted with the vehicle) or vehicle was I.P. injected once bi-weekly into BVES-KO mice (N=6 per treatment) at 12 weeks age, respectively. After two months of treatment, force measurement and exercise evaluation were performed. Mice were sacrificed after 3-month treatment. QU and GA muscles were processed for histopathology, immunofluorescence and Western blot analyses.
Force measurement. The muscle contractility was measured using an in vivo muscle test system (Aurora Scientific Inc) as previously described. Briefly, mice were anesthetized with 2% (w/v) isoflurane and anesthesia was maintained by 2% isoflurane (w/v) during muscle contractility measurement. Maximum plantarflexion tetanic torque was measured during a train of supramaximal electric stimulations of the tibial nerve (pulse frequency 150 Hz, pulse duration 0.2 ms) using the DMA v5.501 (Aurora Scientific Inc).
Exercise and exhaustion assay. Time and distance to exhaustion was performed as previously described. Briefly, prior to training, the randomized mice were firstly acclimated to the treadmill (LE8710MTS, Harvard Apparatus) for two consecutive days at slow speed (10 cm/s) for 5 min. On the third day, mice were placed on an uphill) (15° treadmill with an initial speed of 10 cm/s, increased every 4 min by 5 cm/s. Mice were considered to be exhausted when the animal's hindlimbs remained on the electric grid for more than 10 s. Time and distance were automatically collected via the software SeDaCOM (Harvard Apparatus).

[1] = tested on: ADCY3/ADCY6 double KO HEK293 cells with stable expression of cAMPr; test: cAMPr reporter assay; type: cell-based, human; conditions: 500 μM
[2] = tested on: WT and BVES-KO skeletal muscles; test: Autophagic flux assay (colchicine), LC3B Western blot in GA muscles; type: in vivo, mouse; conditions: 0.4 mg/kg I.P. daily 7 days
Experimental: Autophagic flux assay. A stock solution of colchicine (4 mg/ml in sterile ddH2O, C9754, Sigma-Aldrich) was prepared and stored at −20° C. until the day of treatment. Immediately prior to administration, the colchicine stock solution was diluted to 0.1 mg/mL in sterile ddH2O water. An equal volume of colchicine (0.4 mg/kg) or vehicle was administered to mice (6 weeks old) daily via I.P. injection for 7 days. Muscle tissues were harvested from treated mice on the day after the final treatment.
Western blot. The cells and tissues were homogenized/lysed with cold RIPA buffer supplemented with protease inhibitors, and the extracted proteins were quantified by DC™ Protein Assay Reagent (Bio-Rad, Hercules, CA). The membrane extraction was performed using the Membrane Protein Extraction Kit (ab65400, Abcam, Waltham, MA) according to the manufacturer's instruction. The extracted protein samples were separated by stain-free SDS-PAGE gels (Bio-Rad, 4-15%) and transferred onto Nitrocellulose Membranes (0.45 μm). The membrane was incubated with the primary antibodies (Table 3) at 4° C. overnight. Secondary HRP-conjugated goat anti-mouse (1:4000) and goat anti-rabbit (1:4000) antibodies were obtained from Cell Signaling Technology (Danvers, MA). […] Western blots were quantified using Image Lab 6.0.1 software (Bio-Rad Laboratories, Hercules, CA) according to the manufacturer's instruction.

In the case of CC(C)C[C@H](NC(=O)[C@H](Cc1ccccc1)NC(=O)c1cnccn1)B(O)O [bortezomib], the body weight (BVES-KO mice; 0.8 mg/kg I.P. once bi-weekly, 2 months) is reported as “significantly increased”, the “fiber size (CSA, GA)” value (BVES-KO mice; 0.8 mg/kg I.P., 2 months) is reported as “significantly increased” and the “muscle contractility (tetanic torque)” value (BVES-KO mice; 0.8 mg/kg I.P., 2 months) is reported as “enhanced”. For the same compound, the “physical performance on treadmill running (time to exhaustion, total running distance)” value (BVES-KO mice; 0.8 mg/kg I.P., 2 months) was “improved”, the “mass of quadriceps and gastrocnemius muscles (normalized to body weight)” value (BVES-KO mice; 0.8 mg/kg I.P.) was “significantly increased” and the “muscle pathology (H&E staining, GA)” value (BVES-KO mice; 0.8 mg/kg I.P.) was “remarkably improved”. The “percentage of CNFs (GA)” value (BVES-KO mice; 0.8 mg/kg I.P.) was “reduced”.

In the case of CC(C)Cn1c(=O)n(C)c(=O)c2[nH]cnc21 [IBMX, 3-isobutyl-1-methylxanthine], the “cAMP (cAMPr fluorescence) change” value ([1]; ADCY9-transfected cells) is reported as “gradual increase” and the “cAMP (cAMPr fluorescence) change” value ([1]; cells co-transfected with BVES and ADCY9) is reported as “substantially reduced cAMP elevation”.

COc1cc2c(c(OC)c1OC)-c1ccc(OC)c(=O)cc1[C@@H](NC(C)=O)CC2 [colchicine] was tested, and the “LC3B (Western blot)” value [2] was “significant increase”.
